Experimental findings from patent US10633389B2, “CARM1 inhibitors and uses thereof” (Epizyme, Inc., priority 2013, dated 2020) are described below.

pIC50: −log10 of the molar value.

For the test, the system named is asymmetric di-methyl PABP1 in RKO cells. Description: RKO methylation assay, In Cell Western (ICW) for asymmetric di-methyl PABP1. It is filed as cell-based. To be noted: Homo sapiens, RKO, Cellular potencies, ICW PABP1me2a. The essentials: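 RKO cells treated with compound for 48 h at 37 °C, then fixed, permeabilized and immunostained for asymmetric di-methyl PABP1, with DRAQ5 as DNA stain. Infrared 700/800 nm signal ratio normalized to DMSO and 20 μM reference-compound controls; IC50 from triplicate wells.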
One may read the pIC50 as the negative decadic logarithm of the IC50, by convention in mol/L. A higher pIC50 goes with a small IC50. On to `CNCC(O)COc1cccc(-c2nc(-c3c(C)noc3C)cc(N3CCN(CCF)[C@@H](C)C3)n2)c1` (stereo partly shown) [Example 103-1a], for which the pIC50 was above 5.30. `CCOC(=O)N1CCOC[C@@H]1CNc1nc(-c2cc(OC[C@@H](O)CNC)ccc2Cl)nc(-c2c(C)noc2C)c1C` [Example 42-3]: the pIC50 is above 5.30. Compound `CNCC(O)COc1cccc(-c2nc(C(=O)NCC3CCOCC3)cc(N(C)C3CCOCC3)n2)c1` (stereo not shown) [Example 548-1a] gave a pIC50 of 4.70 to 5.00. In the case of `CNCC(O)COc1cccc(-c2nc(-c3c(C)noc3C)cc(N3CCN(CC(F)F)CC3)n2)c1` (stereo not shown) [Example 79-1a], the pIC50 is above 5.30. `CNCC(O)COc1cccc(-c2nc(N[C@@H]3CCOC3)c(C)c(N3CCN(C)[C@H](C)C3)n2)c1` (stereo partly shown) [Example 463-1a] showed a pIC50 above 5.30. For `CNC[C@@H](O)COc1ccc(Cl)c(-c2nc(-c3c(C)noc3C)c(C)c(N3Cc4cc(C)cnc4C3)n2)c1` [Example 296-3], the pIC50 was above 5.30.

Take `CNC[C@@H](O)COc1ccc(Cl)c(-c2nc(N[C@H]3C[C@@H](C)O[C@@H](C)C3)c(Cl)c(-c3c(C)noc3C)n2)c1` [Example 173-3]: the pIC50 is above 5.30. In turn, `CCOC(=O)N1CCOC[C@H]1CNc1nc(-c2cc(OC[C@@H](O)CNC)ccc2Cl)nc(-c2c(C)noc2C)c1C` [Example 24-3] showed a pIC50 above 5.30.

Compound `CNCC(O)COc1cccc(-c2nc(SC)cc(N(C)C3CCOCC3)n2)c1` (stereo not shown) [Example 573-1a] had a pIC50 of 4.70 to 5.00.

`CNCC(O)COc1cccc(-c2nc(N[C@H]3CC[C@H](OC)C3)c(C)c(-c3c(C)noc3C)n2)c1` (stereo partly shown) [Example 234-1a] had a pIC50 above 5.30.

For the compound `CCS(=O)(=O)N1CC2(CCCN(c3nc(-c4cccc(OCC(O)CNC)c4)nc(-c4c(C)noc4C)c3C)C2)C1` (stereo not shown) [Example 296-1a], the pIC50 was 5.00 to 5.30. To `CNCC(O)COc1cccc(-c2nc(-c3c(C)noc3C)cc(N3CCN[C@@H](C)C3)n2)c1` (stereo partly shown) [Example 40-1a] belongs 4.70 to 5.00; to `CNCC(O)COc1cccc(-c2nc(N[C@@H]3CCOC3)c(C)c(-c3ccc(OC)nc3)n2)c1` (stereo partly shown) [Example 408-1a], 5.00 to 5.30. The result for `CNC[C@@H](O)COc1ccc(F)c(-c2nc(-c3c(C)noc3C)c(C)c(N3Cc4cc(F)cnc4C3)n2)c1` [Example 164-3] reads above 5.30; that for `CNCC(O)COc1cccc(-c2nc(NC3CNC3)c(C)c(-c3c(C)noc3C)n2)c1` (stereo not shown) [Example 1-3], at most 4.70; that for `CCN1CCC(Nc2nc(-c3cc(OC[C@H](O)CNC)ccc3Cl)nc(-c3c(C)noc3C)c2C)C(F)(F)C1` (stereo partly shown) [Example 291-3], above 5.30.

`CNC[C@@H](O)COc1ccc(Cl)c(-c2nc(-c3c(C)noc3C)c(C)c(N3CC4(CCN(C(=O)OC(C)C)C4)C3)n2)c1` [Example 286-3] had a pIC50 above 5.30. For the compound `CNCC(O)COc1cccc(-c2nc(N[C@H]3CC[C@@H](O)CC3)cc(-c3c(C)noc3C)n2)c1` (stereo partly shown) [Example 33-1a], the pIC50 is 5.00 to 5.30. To `CNCC(O)COc1cccc(-c2nc(NC3CN(CC(F)F)C3)c(C)c(-c3c(C)noc3C)n2)c1` (stereo not shown) [Example 237-1a] belongs 4.70 to 5.00; to `CNCC(O)COc1cccc(-c2nc(N[C@@H]3CCOC3)c(C)c(N3CCN(C4CC4)[C@H](C)C3)n2)c1` (stereo partly shown) [Example 466-1a], above 5.30; to `CNCC(O)COc1cccc(-c2nc(N[C@@H]3CCOC3)c(C)c(N3CCC(OC)CC3)n2)c1` (stereo partly shown) [Example 370-1a], 5.00 to 5.30.

For the compound `CNCC(O)COc1cccc(-c2nc(N[C@@H]3CC[C@@H](O)C3)cc(-c3c(C)noc3C)n2)c1` (stereo partly shown) [Example 44-1a], the pIC50 is 5.00 to 5.30.

Regarding `CNCC(O)COc1cccc(-c2nc(NC3CCCN(C(=O)N(C)C)C3)c(C)c(-c3c(C)noc3C)n2)c1` (stereo not shown) [Example 216-1a], the pIC50 is above 5.30. For the compound `CNC[C@@H](O)COc1ccc(Cl)c(-c2nc(-c3c(C)noc3C)c(Cl)c(N3Cc4cccnc4C3)n2)c1` [Example 168-3], the pIC50 was above 5.30. The compound `CNCC(O)COc1cccc(-c2nc(N[C@@H]3CCOC3)c(C)c(N3CCC4(CN(CC(F)F)C4)C3)n2)c1` (stereo partly shown) [Example 475-1a] had a pIC50 of 5.00 to 5.30. Take `CCOC(=O)N1CCC[C@@H]1CCNc1nc(-c2cc(OC[C@H](O)CNC)ccc2Cl)nc(-c2c(C)noc2C)c1C` [Example 136-3]: the pIC50 is above 5.30. On to `CNC[C@@H](O)COc1ccc(Cl)c(-c2nc(N[C@H]3CO[C@H](C)C3)c(C)c(-c3c(C)noc3C)n2)c1` [Example 198-3], for which the pIC50 is above 5.30. The compound `CNCC(O)COc1cccc(-c2nc(NC3CCN(C(=O)C4CC4)C3)c(C)c(-c3c(C)noc3C)n2)c1` (stereo not shown) [Example 243-1a] had a pIC50 above 5.30. The result for `CNCC(O)COc1cccc(-c2nc(-c3sc(C)nc3C)cc(N(C)C3CCOCC3)n2)c1` (stereo not shown) [Example 569-1a] reads 4.70 to 5.00; that for `CNCC(O)COc1cccc(-c2nc(-c3c(C)noc3C)cc(N3C[C@H]4C[C@@H]3CN4)n2)c1` (stereo partly shown) [Example 109-1a], 4.70 to 5.00; that for `CNCC(O)COc1cccc(-c2nc(-c3nc(C)c[nH]3)cc(N(C)C3CCOCC3)n2)c1` (stereo not shown) [Example 521-1a], 5.00 to 5.30.

Compound `CNCC(O)COc1cccc(-c2nc(N[C@@H]3CCOC3)c(C)c(N3CCOCC3)n2)c1` (stereo partly shown) [Example 3-1] gave a pIC50 of 5.00 to 5.30. The compound `CNCC(O)COc1cccc(-c2nc(-c3c(C)noc3C)cc(N3CCN(n4c(C)nnc4C)CC3)n2)c1` (stereo not shown) [Example 165-1a] gave a pIC50 above 5.30. The result for `CNC[C@H](O)COc1cccc(-c2nc(NC3CCOCC3)cc(-c3c(C)noc3C)n2)c1` [Example 17-1a] reads above 5.30.

As to `CNCC(O)COc1cccc(-c2nc(NC3CCOC3)c(C)c(N3CCN(C(C)=O)C[C@H]3C)n2)c1` (stereo partly shown) [Example 421-1a], the pIC50 is 5.00 to 5.30. With `CNCC(O)COc1cccc(-c2nc(-c3c(C)noc3C)cc(N(CCOC)C3CCOCC3)n2)c1` (stereo not shown) [Example 98-1a], the pIC50 was above 5.30.

Take `CCS(=O)(=O)N1CCN(c2nc(-c3cccc(OCC(O)CNC)c3)nc(N[C@@H]3CCOC3)c2C)CC1` (stereo partly shown) [Example 464-1a]: the pIC50 is above 5.30. On to `CNC[C@@H](O)COc1ccc(Cl)c(-c2nc(N[C@@H]3C[C@@H](C)O[C@@H](C)C3)c(C)c(-c3c(C)noc3C)n2)c1` [Example 182-3], for which the pIC50 was above 5.30. With `CCO[C@H]1CCC[C@@H]1Nc1nc(-c2cc(OC[C@H](O)CNC)ccc2Cl)nc(-c2c(C)noc2C)c1C` [Example 222-3], the pIC50 was above 5.30. For `CNCC(O)COc1cccc(-c2nc(NC3CCS(=O)(=O)CC3)cc(-c3c(C)noc3C)n2)c1` (stereo not shown) [Example 60-1a], the pIC50 was 4.70 to 5.00. On to `CCOC(=O)N1CCN(c2nc(-c3cccc(OCC(O)CNC)c3)nc(N[C@@H]3CCOC3)c2C)C[C@H]1C` (stereo partly shown) [Example 470-1a], for which the pIC50 is above 5.30. As for `CNCC(O)COc1cccc(-c2nc(N[C@@H]3CCOC3)c(C)c(N3CC[C@@H](OC)C3)n2)c1` (stereo partly shown) [Example 369-1a], the negative logarithm of the IC50 (pIC50) was 4.70 to 5.00.

For the compound `CCOC(=O)N1CC(Nc2nc(-c3cccc(OCC(O)CNC)c3)nc(-c3c(C)noc3C)c2C)C1` (stereo not shown) [Example 238-1a], the pIC50 was 4.70 to 5.00. As to `CNC[C@H](O)COc1ccc(Cl)c(-c2nc(N[C@@H]3CCN(C(=O)OC)[C@@H](C)C3)c(C)c(-c3c(C)noc3C)n2)c1` [Example 66-3], the pIC50 is above 5.30.

Turning to `CNCC(O)COc1cccc(-c2nc(-c3c(C)noc3C)cc(N3CCN(CC(F)(F)F)[C@@H](C)C3)n2)c1` (stereo partly shown) [Example 104-1a], the pIC50 was above 5.30. Compound `CNCC(O)COc1cccc(-c2nc(NCC3CN(C)CCO3)c(C)c(-c3c(C)noc3C)n2)c1` (stereo not shown) [Example 171-1a] showed a pIC50 above 5.30. In the case of `CCS(=O)(=O)N1CCOC[C@@H]1CNc1nc(-c2cccc(OCC(O)CNC)c2)nc(-c2c(C)noc2C)c1C` (stereo partly shown) [Example 230-1a], the negative-log IC50 (pIC50) is above 5.30.

In turn, `CNCC(O)COc1cccc(-c2nc(N[C@H]3[C@@H]4CN(C(=O)OC)C[C@@H]43)c(C)c(-c3c(C)noc3C)n2)c1` (stereo partly shown) [Example 282-1a] had a negative logarithm of the IC50 (pIC50) above 5.30. On to `CNC[C@@H](O)COc1ccc(Cl)c(-c2nc(-c3c(C)noc3C)c(C)c(N3CCc4ccncc43)n2)c1` [Example 174-3], for which the negative logarithm of the IC50 (pIC50) was above 5.30. `CNCC(O)COc1cccc(-c2nc(-c3c(C)noc3C)c(C)c(N3CC(CO)(CNC(=O)N(C)C)C3)n2)c1` (stereo not shown) [Example 298-1a]: the pIC50 was 4.70 to 5.00. `CNC[C@@H](O)COc1ccc(Cl)c(-c2nc(-c3c(C)noc3C)c(C)c(N3CC4(CCN(CC(F)F)CC4)C3)n2)c1` [Example 283-3] gave a pIC50 above 5.30. `CNCC(O)COc1cc(Cl)cc(-c2nc(N[C@@H]3CCOC3)cc(-c3c(C)noc3C)n2)c1` (stereo partly shown) [Example 10-1a] showed a negative-log IC50 (pIC50) of 4.70 to 5.00. `CNC[C@@H](O)COc1ccc(F)c(-c2nc(-c3c(C)noc3C)c(C)c(N3CC4(CCN(C(=O)OC(C)C)CC4)C3)n2)c1` [Example 281-3] gave a negative logarithm of the IC50 (pIC50) above 5.30. The compound `CNCC(O)COc1cccc(-c2nc(NCC3(N(C)C)CCOCC3)c(C)c(-c3c(C)noc3C)n2)c1` (stereo not shown) [Example 140-1a] showed a pIC50 above 5.30. To `CNCC(O)COc1cccc(-c2nc(-c3c(C)noc3C)cc(N3CCN(C(=O)OC)CC3)n2)c1` (stereo not shown) [Example 81-1a] belongs above 5.30; to `CNCC(O)COc1cccc(-c2nc(N3CCNC(=O)C3)cc(N(C)C3CCOCC3)n2)c1` (stereo not shown) [Example 575-1a], 4.70 to 5.00. Compound `CNCC(O)COc1cccc(-c2nc(N3CC4(CCNCC4)c4ccccc43)cc(N(C)C3CCOCC3)n2)c1` (stereo not shown) [Example 559-1a] showed a pIC50 of 4.70 to 5.00. Consider `CNCC(O)COc1cccc(-c2nc(-c3c(C)noc3C)cc(N(CCOC)CCOC)n2)c1` (stereo not shown) [Example 52-1], for which the pIC50 is 4.70 to 5.00. Regarding `CNC[C@@H](O)COc1ccc(Cl)c(-c2nc(OC[C@@H]3CCOC3)c(C)c(-c3c(C)noc3C)n2)c1` [Example 126-3], the pIC50 was above 5.30.

As for `CNCC(O)COc1cccc(-c2nc(NCC3CCN(CC(F)F)CC3)c(C)c(-c3c(C)noc3C)n2)c1` (stereo not shown) [Example 205-1a], the pIC50 was above 5.30.

Consider `CNCC(O)COc1cccc(-c2nc(-c3c(C)noc3C)c(C)c(N3CCO[C@H](C)C3)n2)c1` (stereo partly shown) [Example 211-1a], for which the negative logarithm of the IC50 (pIC50) was above 5.30.
